Molecules are shown by their SMILES.

In general, Kd refers to a measure of binding affinity in units of concentration. The low end stands for higher affinity, the high end for lower affinity.

For the assay, the target named is CalO2 (Micromonospora echinospora, UniProt Q8KND6). The experiment in a line: CalO2 ligand binding by UV-vis difference spectra. Set-up: species or system M. echinospora.
`CC(=O)NCCSC(=O)c1c(C)cc(O)cc1O` [compound 11] gave a Kd of 170 ± 30 µM.

`CC(=O)NCCSC(=O)c1cccc(I)c1` [compound 13] gave a Kd of 120 µM. The figure for `CC(=O)NCCSC(=O)c1ccccc1O` [compound 14] is 405 ± 100 µM.

For the origin of these results see publication PMC2742692 (Proteins, 2009).
